Test results from PubChem BioAssay AID266 (DTP/NCI, 2004).
Several values for one entry are separate records, joined by “and”; a condition that tells them apart may be missing. Equal entries are not always repeated. Inconclusive results are not listed.

System: Nude mice, LX-1 lung xenograft intrarenal, tumor weight T/C
Assay: NCI In Vivo Anticancer Drug Screen. Data for tumor model Human Lung LX-1 Xenograft (intrarenal inoculation) in NU/NU BALB/C (nude) mice
Settings: endpoint: mean tumor weight change, higher = larger tumour
Method: The antitumor activity of compounds was measured in mice bearing transplantable tumors. Survival or tumor size were measured and the results are expressed as the measurement made in the treated group (T) divided by the measurement made in the vehicle treated control group (C). The tumor model used in this assay is Human Lung LX-1 Xenograft (intrarenal inoculation) in NU/NU BALB/C (nude) mice

[1] = dose: 300.0 mg/kg/injection, schedule: Q04DX003 (sc), vehicle: saline with Tween-80
[2] = dose: 600.0 mg/kg/injection, schedule: Q04DX003 (sc), vehicle: saline with Tween-80
[3] = dose: 1200.0 mg/kg/injection, schedule: Q04DX003 (sc), vehicle: saline with Tween-80
[4] = dose: 300.0 mg/kg/injection, schedule: Q04DX003 (sc), vehicle: saline
[5] = dose: 600.0 mg/kg/injection, schedule: Q04DX003 (sc), vehicle: saline
[6] = dose: 1200.0 mg/kg/injection, schedule: Q04DX003 (sc), vehicle: saline
[7] = dose: 2400.0 mg/kg/injection, schedule: Q04DX003 (sc), vehicle: saline

CC(C)CCCCCCCCCCCCC(=O)NCC(=O)NC1C(C)OC(Nc2ncnc3nc[nH]c23)C(O)C1O (configuration not stated)
T/C (dose: 2.0 mg/kg/injection, schedule: Q01DX010 (sc), vehicle: saline with Tween-80): 69 % of control
T/C (dose: 4.0 mg/kg/injection, schedule: Q01DX010 (sc), vehicle: saline with Tween-80): 40 % of control
T/C (dose: 8.0 mg/kg/injection, schedule: Q01DX010 (sc), vehicle: saline with Tween-80): 32 % of control
T/C (dose: 16.0 mg/kg/injection, schedule: Q01DX010 (sc), vehicle: saline with Tween-80): 17 % of control

O=NN(CCCl)C(=O)NCCO
T/C (dose: 3.13 mg/kg/injection, schedule: Q04DX003 (sc), vehicle: water): 113 % of control
T/C (dose: 6.25 mg/kg/injection, schedule: Q04DX003 (sc), vehicle: water): 26 % of control
T/C (dose: 12.5 mg/kg/injection, schedule: Q04DX003 (sc), vehicle: water): -25 % of control

O=C(CCCCCCC(=O)ON1C(=O)CCC1=O)ON1C(=O)CCC1=O
T/C [1]: 104 % of control
T/C [2]: 95 % of control
T/C [3]: 89 % of control
T/C (dose: 2400.0 mg/kg/injection, schedule: Q04DX003 (sc), vehicle: saline with Tween-80): 72 % of control

CO[C@H](/C(C)=C/C=C/C(C)=C/c1coc(C)n1)[C@H](C)[C@H]1C[C@@H](O)[C@@]2(C)O[C@H]2/C=C/[C@@H](C)[C@@H]2C[C@@H](CC(=O)O2)C[C@H]2O[C@@H]2C(=O)O1
T/C (dose: 0.13 mg/kg/injection, schedule: Q04DX003 (sc), vehicle: Klucel (hydroxypropylcellulose) (HPC)): 105 % of control
T/C (dose: 0.25 mg/kg/injection, schedule: Q04DX003 (sc), vehicle: Klucel (hydroxypropylcellulose) (HPC)): 95 % of control

CN1c2c(nc(N)[nH]c2=O)NCC1CCNc1ccc(C(=O)NC(CCC(=O)O)C(=O)O)cc1 (configuration not stated)
T/C (dose: 100.0 mg/kg/injection, schedule: Q01DX010 (sc), vehicle: saline): 56 % of control
T/C (dose: 200.0 mg/kg/injection, schedule: Q01DX010 (sc), vehicle: saline): 28 % of control
T/C (dose: 400.0 mg/kg/injection, schedule: Q01DX010 (sc), vehicle: saline): 49 % of control
T/C (dose: 800.0 mg/kg/injection, schedule: Q01DX010 (sc), vehicle: saline): 34 % of control

Cn1cc(C2NC(=O)c3ccccc3N2)c2ccccc21 (configuration not stated)
T/C (dose: 300.0 mg/kg/injection, schedule: Q04DX003 (sc), vehicle: Klucel (hydroxypropylcellulose) (HPC)): 83 % of control and 103 % of control
T/C (dose: 900.0 mg/kg/injection, schedule: Q04DX003 (sc), vehicle: Klucel (hydroxypropylcellulose) (HPC)): 111 % of control and 92 % of control
T/C (dose: 1200.0 mg/kg/injection, schedule: Q04DX003 (sc), vehicle: Klucel (hydroxypropylcellulose) (HPC)): 90 % of control and 103 % of control

O=S(=O)(CCl)OCCCl
T/C (dose: 50.0 mg/kg/injection, schedule: Q04DX003 (sc), vehicle: saline with Tween-80): 122 % of control
T/C (dose: 100.0 mg/kg/injection, schedule: Q04DX003 (sc), vehicle: saline with Tween-80): 101 % of control

CN(CO)c1nc(N(C)CO)nc(N(C)CO)n1
T/C (dose: 6.25 mg/kg/injection, schedule: Q01DX010 (sc), vehicle: saline): 71 % of control
T/C (dose: 25.0 mg/kg/injection, schedule: Q01DX010 (sc), vehicle: saline): 100 % of control
T/C (dose: 50.0 mg/kg/injection, schedule: Q01DX010 (sc), vehicle: saline): 122 % of control

Cc1cc(NCCCCCCCNc2cc(C)nc3cc(N)ccc23)c2ccc(N)cc2n1
T/C (dose: 12.5 mg/kg/injection, schedule: Q01DX010 (sc), vehicle: saline with Tween-80): 48 % of control
T/C (dose: 25.0 mg/kg/injection, schedule: Q01DX010 (sc), vehicle: saline with Tween-80): 11 % of control

O=C(O)CP(=O)(O)O
T/C [4]: 105 % of control
T/C [5]: 156 % of control
T/C [6]: 106 % of control

CCCCCc1cc(/C=C2/N=C(c3ccc[nH]3)C=C2OC)[nH]c1C
T/C (dose: 8.0 mg/kg/injection, schedule: Q04DX003 (sc), vehicle: saline with Tween-80): 73 % of control
T/C (dose: 16.0 mg/kg/injection, schedule: Q04DX003 (sc), vehicle: saline with Tween-80): 54 % of control
T/C (dose: 32.0 mg/kg/injection, schedule: Q04DX003 (sc), vehicle: saline with Tween-80): 59 % of control
T/C (dose: 64.0 mg/kg/injection, schedule: Q04DX003 (sc), vehicle: saline with Tween-80): 67 % of control

O=C1NC(O)CCN1C1OC(CO)C(O)C1O (configuration not stated)
T/C (dose: 200.0 mg/kg/injection, schedule: Q01DX010 (sc), vehicle: water): 257 % of control
T/C (dose: 400.0 mg/kg/injection, schedule: Q01DX010 (sc), vehicle: water): 196 % of control
T/C (dose: 800.0 mg/kg/injection, schedule: Q01DX010 (sc), vehicle: water): 223 % of control
T/C (dose: 1600.0 mg/kg/injection, schedule: Q01DX010 (sc), vehicle: water): 176 % of control

O=C(NO)c1ccccc1
T/C (dose: 100.0 mg/kg/injection, schedule: Q01DX010 (sc), vehicle: Klucel (hydroxypropylcellulose) (HPC)): 120 % of control
T/C (dose: 200.0 mg/kg/injection, schedule: Q01DX010 (sc), vehicle: Klucel (hydroxypropylcellulose) (HPC)): 150 % of control

NC(CCC(=O)NC(CS)C(=O)NCC(=O)O)C(=O)O (configuration not stated)
T/C [4]: 97 % of control
T/C [5]: 69 % of control
T/C [6]: 74 % of control
T/C [7]: 121 % of control

CC(=O)Nc1cscc1NC(C)=O
T/C (dose: 150.0 mg/kg/injection, schedule: Q04DX003 (sc), vehicle: saline with Tween-80): 89 % of control
T/C [1]: 121 % of control
T/C [2]: 111 % of control
T/C [3]: 110 % of control

O=C1CCC(=O)N1CO
T/C (dose: 150.0 mg/kg/injection, schedule: Q04DX003 (sc), vehicle: saline): 95 % of control
T/C [4]: 93 % of control
T/C [5]: 82 % of control
T/C [6]: 63 % of control

COC(=O)CC(N)C(=O)O (configuration not stated)
T/C [4]: 84 % of control
T/C [5]: 80 % of control
T/C [6]: 55 % of control
T/C [7]: 54 % of control

N=c1ccn2c(n1)OC1C(O)C(CO)OC12 (configuration not stated)
T/C (dose: 400.0 mg/kg/injection, schedule: Q04DX003 (sc), vehicle: saline): 67 % of control
T/C (dose: 800.0 mg/kg/injection, schedule: Q04DX003 (sc), vehicle: saline): 48 % of control
T/C (dose: 1600.0 mg/kg/injection, schedule: Q04DX003 (sc), vehicle: saline): 16 % of control
T/C (dose: 3200.0 mg/kg/injection, schedule: Q04DX003 (sc), vehicle: saline): 8 % of control

COCC(O)Cn1ccnc1[N+](=O)[O-] (configuration not stated)
T/C (dose: 2400.0 mg/kg/injection, schedule: Q04DX003 (sc), vehicle: suspension in saline): 104 % of control

CC[C@H]1CN2CCc3cc(OC)c(OC)cc3[C@@H]2C[C@@H]1C[C@H]1NCCc2cc(OC)c(OC)cc21
T/C (dose: 4.0 mg/kg/injection, schedule: Q01DX010 (sc), vehicle: saline): 81 % of control

CN=NN(C)C(=O)NC
T/C (dose: 6.25 mg/kg/injection, schedule: Q04DX003 (ip), vehicle: saline): 71 % of control and 82 % of control
T/C (dose: 12.5 mg/kg/injection, schedule: Q04DX003 (ip), vehicle: saline): 28 % of control and 45 % of control
T/C (dose: 25.0 mg/kg/injection, schedule: Q04DX003 (ip), vehicle: saline): 6 % of control
T/C (dose: 50.0 mg/kg/injection, schedule: Q04DX003 (ip), vehicle: saline): -34 % of control and -18 % of control
T/C (dose: 108.0 mg/kg/injection, schedule: Q04DX003 (ip), vehicle: saline): 5 % of control
T/C (dose: 180.0 mg/kg/injection, schedule: Q04DX003 (ip), vehicle: saline): 4 % of control

O=NN(CCCl)C(=O)NC1CCCCC1
T/C (dose: 12.5 mg/kg/injection, schedule: Q04DX003 (sc), vehicle: Klucel (hydroxypropylcellulose) (HPC)): 47 % of control
T/C (dose: 25.0 mg/kg/injection, schedule: Q04DX003 (sc), vehicle: Klucel (hydroxypropylcellulose) (HPC)): 29 % of control
T/C (dose: 26.66 mg/kg/injection, schedule: Q04DX003 (sc), vehicle: saline with Tween-80): 4 % of control
T/C (dose: 50.0 mg/kg/injection, schedule: Q04DX003 (sc), vehicle: Klucel (hydroxypropylcellulose) (HPC)): -25 % of control
T/C (dose: 53.33 mg/kg/injection, schedule: Q04DX003 (sc), vehicle: saline with Tween-80): -73 % of control
T/C (dose: 100.0 mg/kg/injection, schedule: Q04DX003 (sc), vehicle: Klucel (hydroxypropylcellulose) (HPC)): 4 % of control

Cc1cc(=NO)cc(C)n1O
T/C (dose: 300.0 mg/kg/injection, schedule: Q04DX003 (sc), vehicle: distilled water + alcohol): 102 % of control
T/C (dose: 600.0 mg/kg/injection, schedule: Q04DX003 (sc), vehicle: distilled water + alcohol): 102 % of control
T/C (dose: 1200.0 mg/kg/injection, schedule: Q04DX003 (sc), vehicle: distilled water + alcohol): 60 % of control
